# Assay results from PMC12077799, “Fragment-based drug discovery for transthyretin kinetic stabilisers using a novel capillary zone electrophoresis method” (PLOS One, 2025).
# Target: T1, Human transthyretin (TTR) thyroxine binding sites (Homo sapiens, UniProt P02766)
# T1 construct: purchased SCIPAC (Sittingbourne, Kent, UK) P171-1
# Assay: TTR CZE Free Probe Peak Height Restoration (FPPHR) assay, 8-ANS displacement
# Details: compound 10 µM in Running Buffer; 10% minimum for a binder
# Method: CZE assays development and fragment screening were performed on a Beckman P/ACE MDQ capillary electrophoresis system (Beckman Coulter Inc., Brea, CA) operated by 32 Karat™ software. All capillaries (Polymicro Technologies, Phoenix, AZ) used were internally coated with polyvinyl alcohol and of around 30 cm in length, 75 microns in internal diameter. Capillary temperature was maintained at 20 °C by recirculating fluorinated fluid coolant during electrophoresis. Sample trays and buffer trays temperature were maintained at 4°C and ambient respectively. For every electrophoretic run, the capillary was pressure rinsed and prefilled with electrophoresis buffer also known as background electrolyte (termed as Running Buffer hereafter) before injection. After each electrophoretic run, the capillary was rinsed with Running Buffer and H2O by pressure (20 psi for 1 minute). Three Running Buffers (RB), A: 20 mM Tris pH 7.5, 1 mM KCl, 1.62 mM NaCl; B: 20 mM HEPES pH 7.0, 2 mM CaCl2 and C: 20 mM HEPES pH 7.0, 2 mM CaCl2, 1% DMSO were used. All CE traces were analysed by 32Karat™ Software with a built-in automatic peak integration algorithm.
# Control 1 Inject Buffer (IB) containing 30 μM 8-ANS was prepared by mixing 1 μL of 3 mM 8-ANS DMSO stock with 99 μL of Running Buffer B in a 0.2 mL PCR tube. Control 2 Inject Buffer was prepared by mixing 1μL of 3 mM 8-ANS DMSO stock with 20 μL of 100 μM tetrameric TTR stock in Running Buffer B and 79 μL of Running Buffer B. The final concentrations (f/c) were 8-ANS 30 μM, TTR 20 μM and 1% DMSO v/v.
# The maximum Free Probe Peak Height (Control 1 Peak Height) was determined by Outlet Injection (see Fig 1) of Control 1 with an injection pressure of 0.5 psi for 5 seconds (equivalent to ≈ 20–30 nL). An identical injection of Control 2 provides the minimum Free Probe Peak Height (Control 2 Peak Height) enabling calculation of % of bound and unbound, i.e., free 8-ANS. To determine the 8-ANS peak height in Control 1 and Control 2, the capillary was prefilled with Buffer C and electrophoresis carried out at 10 kV (Normal Polarity, Fig 1) with UV monitoring at 230 nm. For displacement analysis, ligand DMSO stock was diluted in Buffer B and used to fill the capillary as the Running Buffer. Electrophoresis commenced after injection of Control 2, thus the injected 8-ANS-TTR complex migrates inside a capillary filled with the test ligand. The observed 8-ANS peak height is defined as Sample Peak Height and the displaced 8-ANS can be calculated as:
# \% of Free Probe Peak Height Restoration= Sample Peak Height−Control 2 Peak Height/Control 1 Peak Height−Control 2 Peak Height
row,FPPHR % tested at 10 µM,Structure (SMILES)
1,22.71% tested at 10 µM,Clc1ccc2c(-c3cc[nH]n3)ccnc2c1 [Compound 63633004]
2,10.85% tested at 10 µM,c1ccc2c(-c3nnc4cnccn34)ccnc2c1 [Compound 86471824]

# Same assay, conditions: compound 50 μM in Running Buffer; 10% minimum for a binder
row,Structure (SMILES),FPPHR % at 50 μM
1,Clc1n[nH]c2ccccc12 [Compound A00014954],24.84%
2,c1cc2cc[nH]c2cn1 [Compound A00010944],3.73%
3,Cc1[nH]ncc1-c1ccccc1 [Compound 12T-0222],25.63%
4,c1cc2[nH]ccc2cn1 [Compound 218458],5.03%
5,COC(=O)c1c[nH]c2ccccc12 [Compound A00010562],16.40%
6,Clc1cc2cc[nH]c2cn1 [Compound 217869],12.83%
7,c1cnc2[nH]ccc2c1 [Compound 242506],7.85%
8,Nc1[nH]ncc1-c1ccc(Cl)cc1 [Compound 242212],25.65%

# The remaining lines, values ahead:
row,FPPHR % at 50 μM,Structure (SMILES)
1,1.88%,CN(C)Cc1c[nH]c2ncccc12 [SFL001519]
2,14.93%,c1ccc(-c2cn[nH]c2)cc1 [Compound Z1013760930]
3,13.28%,Nc1[nH]ncc1-c1ccccc1 [OR1969]
4,7.42%,Cc1nn(C)c(N)c1-c1ccccc1 [SFL001562]

# Same assay, conditions: compound 100 μM in Running Buffer; 10% minimum for a binder
row,FPPHR % at 100 μM,Structure (SMILES)
1,12.12%,c1ccc2[nH]ncc2c1 [SFL000101]
2,18.42%,c1ccc2nc(-c3cn[nH]c3)ccc2c1 [SFL001536]
3,5.29%,c1ncc2[nH]cnc2n1 [SFL001639]
4,17.18%,c1ccc2[nH]ccc2c1 [SFL001004]
5,6.22%,c1cncc(-c2nc3ccccc3[nH]2)c1 [SFL001465]
6,4.78%,N#Cc1ncnc2nc[nH]c12 [SFL001640]

# Same assay, conditions: in words; concentrations (e.g. Tafamidis 10 µM, Diphenylamine 250 μM, Verapamil 300 µM, Acetazolamide 500 µM)
row,Structure (SMILES),change of free 8-ANS peak height with compound in the Running Buffer
1,"Nc1ccccc1S(N)(=O)=O [2-Aminobenzenesulphonamide, reference compound]",changed minimally
2,"O=C(O)c1ccc2nc(-c3cc(Cl)cc(Cl)c3)oc2c1 [Tafamidis, reference compound]",significant free 8-ANS peak height increase
3,"N[C@@H](Cc1cc(I)c(Oc2cc(I)c(O)c(I)c2)c(I)c1)C(=O)O [Thyroxine T4, reference compound]",significant free 8-ANS peak height increase
4,"COc1ccc(CCN(C)CCCC(C#N)(c2ccc(OC)c(OC)c2)C(C)C)cc1OC (stereo not drawn) [Verapamil, reference compound]",changed minimally
5,"c1ccc(Nc2ccccc2)cc1 [Diphenylamine, reference compound]",significant free 8-ANS peak height increase
6,"CC(=O)Nc1nnc(S(N)(=O)=O)s1 [Acetazolamide, reference compound]",changed minimally
7,"Nc1cc(Cl)c(O)c(Cl)c1 [4-Amino-2,6-Dichlorophenol, reference compound]",significant free 8-ANS peak height increase
